From patent publication US20220389009A1, “SUBSTITUTED 1,6-NAPHTHYRIDINE INHIBITORS OF CDK5” (Goldfinch Bio, Inc., priority 2019, published 2022)

What was measured:
CDK5/p25 = CDK5/p25 (Homo sapiens, UniProt Q00535); experiment: CDK5 mobility shift assay (enzymatic activity of CDK5/p25); type: biochemical; settings: for IC50: 0.154 nM CDK5/p25, FL peptide 29, 60 min at room temperature, read-out: CDK5 IC50; for CDK5/CDK2 specificity: fold more active against CDK5 than CDK2
Outline: (§1)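 Phosphorylation of 1.5 μM fluorescent peptide was read by microfluidic mobility shift and fitted to IC50 (4-parameter), normalized to no-compound and no-enzyme controls. CDK5/p25 ran at 0.154 nM with […] ATP for 60 min, using peptide 29. CDK2/CycA2 ran at 1.25 nM with 37 μM ATP for 120 min, using peptide 18. Both included a 30-min compound preincubation in pH 7.5 buffer.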

CDK2/CycA2 = CDK2/CycA2 (Homo sapiens, UniProt P24941); experiment: CDK2 mobility shift assay (enzymatic activity of CDK2/CycA2); type: biochemical; settings: 1.25 nM CDK2/CycA2, 37 μM ATP, FL Peptide 18, 120 min at room temperature; read-out: CDK2 IC50
Outline: as §1

Sequence of CDK5/p25 (Q00535 whole entry): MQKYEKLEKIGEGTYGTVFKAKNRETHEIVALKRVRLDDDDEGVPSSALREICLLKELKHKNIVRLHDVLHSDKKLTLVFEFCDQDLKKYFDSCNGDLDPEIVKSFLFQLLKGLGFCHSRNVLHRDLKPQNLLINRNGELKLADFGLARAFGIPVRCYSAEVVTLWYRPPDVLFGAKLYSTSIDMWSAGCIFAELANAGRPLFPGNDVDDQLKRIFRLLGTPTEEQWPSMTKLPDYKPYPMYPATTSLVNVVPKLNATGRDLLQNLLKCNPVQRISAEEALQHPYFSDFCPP
Sequence of CDK5/p25 (Q15078 99-307 partner limits assumed): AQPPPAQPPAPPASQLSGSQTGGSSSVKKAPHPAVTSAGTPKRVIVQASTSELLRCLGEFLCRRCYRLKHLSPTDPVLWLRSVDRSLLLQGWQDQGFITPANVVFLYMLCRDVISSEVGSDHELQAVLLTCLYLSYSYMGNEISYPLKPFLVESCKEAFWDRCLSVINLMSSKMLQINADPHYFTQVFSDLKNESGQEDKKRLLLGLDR

SMILES	IC50 (CDK5/p25)	IC50 (CDK2/CycA2)	CDK5/CDK2 specificity (CDK5/p25)
CN1CCC(S(=O)(=O)c2ccc3cnc(Nc4ccc(N5CCOCC5)cc4)cc3n2)CC1 [Compound 262]	< 10 nM	10 to 100 nM	++ (greater than 10-fold and less than or equal to 100-fold more active against CDK5 than CDK2)
CN1CCC(S(=O)(=O)c2ccc3cnc(Nc4ccc(Cn5cncn5)cc4)cc3n2)CC1 [Compound 263]	< 10 nM	10 to 100 nM	++ (greater than 10-fold and less than or equal to 100-fold more active against CDK5 than CDK2)
COC(=O)CCc1nnc(Nc2cc3nc(S(=O)(=O)C4CCN(C)CC4)ccc3cn2)s1 [Compound 264]	> 1000 nM	> 1000 nM	+ (10-fold or less more active against CDK5 than CDK2)
Cc1cc(C(=O)NC(C)C)ccc1Nc1cc2nc(S(=O)(=O)C3CCN(C)CC3)ccc2cn1 [Compound 265]	10 to 100 nM	> 1000 nM	+++ (greater than 100-fold more active against CDK5 than CDK2)
CN1CCC(S(=O)(=O)c2ccc3cnc(Nc4ccccc4N4CCOCC4)cc3n2)CC1 [Compound 266]	> 1000 nM	> 1000 nM	++ (greater than 10-fold and less than or equal to 100-fold more active against CDK5 than CDK2)
COc1cncc(Nc2cc3nc(S(=O)(=O)C4CCN(C)CC4)ccc3cn2)c1 [Compound 267]	10 to 100 nM	100 to 1000 nM	++ (greater than 10-fold and less than or equal to 100-fold more active against CDK5 than CDK2)
CNC(=O)c1ccc(Nc2cc3nc(S(=O)(=O)C4CCN(C)CC4)ccc3cn2)cc1 [Compound 268]	< 10 nM	100 to 1000 nM	++ (greater than 10-fold and less than or equal to 100-fold more active against CDK5 than CDK2)
CN1CCC(S(=O)(=O)c2ccc3cnc(Nc4ccon4)cc3n2)CC1 [Compound 269]	10 to 100 nM	100 to 1000 nM	+ (10-fold or less more active against CDK5 than CDK2)
CN1CCC(S(=O)(=O)c2ccc3cnc(Nc4ccc(N5CCN(C)CC5)cc4)cc3n2)CC1 [Compound 270]	< 10 nM	100 to 1000 nM	++ (greater than 10-fold and less than or equal to 100-fold more active against CDK5 than CDK2)
CN1CCC(S(=O)(=O)c2ccc3cnc(Nc4ccc(S(C)(=O)=O)cc4)cc3n2)CC1 [Compound 271]	< 10 nM	10 to 100 nM	+ (10-fold or less more active against CDK5 than CDK2)
CN1CCC(S(=O)(=O)c2ccc3cnc(Nc4ccc5oc(=O)ccc5c4)cc3n2)CC1 [Compound 272]	< 10 nM	100 to 1000 nM	++ (greater than 10-fold and less than or equal to 100-fold more active against CDK5 than CDK2)
CN1CCC(S(=O)(=O)c2ccc3cnc(Nc4cccc(N5CCOCC5)c4)cc3n2)CC1 [Compound 273]	< 10 nM	100 to 1000 nM	+++ (greater than 100-fold more active against CDK5 than CDK2)
CN1CCC(S(=O)(=O)c2ccc3cnc(Nc4cccc(C5CC5)c4)cc3n2)CC1 [Compound 274]	< 10 nM	10 to 100 nM	+++ (greater than 100-fold more active against CDK5 than CDK2)
CN1CCC(S(=O)(=O)c2ccc3cnc(Nc4ccc5c(c4)C(=O)N(C)C5)cc3n2)CC1 [Compound 275]	10 to 100 nM	100 to 1000 nM	++ (greater than 10-fold and less than or equal to 100-fold more active against CDK5 than CDK2)
CN1CCC(S(=O)(=O)c2ccc3cnc(Nc4cccc(CN5CCOCC5)c4)cc3n2)CC1 [Compound 276]	< 10 nM	100 to 1000 nM	++ (greater than 10-fold and less than or equal to 100-fold more active against CDK5 than CDK2)
CN1CCC(S(=O)(=O)c2ccc3cnc(Nc4cccc(N5CCN(C)CC5)c4)cc3n2)CC1 [Compound 277]	< 10 nM	100 to 1000 nM	++ (greater than 10-fold and less than or equal to 100-fold more active against CDK5 than CDK2)
CN1CCC(S(=O)(=O)c2ccc3cnc(Nc4ccc5c(c4)C(=O)NCC5)cc3n2)CC1 [Compound 278]	< 10 nM	100 to 1000 nM	++ (greater than 10-fold and less than or equal to 100-fold more active against CDK5 than CDK2)
CN1CCC(S(=O)(=O)c2ccc3cnc(Nc4ccc(-n5cncn5)cc4)cc3n2)CC1 [Compound 279]	< 10 nM	100 to 1000 nM	++ (greater than 10-fold and less than or equal to 100-fold more active against CDK5 than CDK2)
CN(C)Cc1cccc(Nc2cc3nc(S(=O)(=O)C4CCN(C)CC4)ccc3cn2)c1 [Compound 280]	10 to 100 nM	100 to 1000 nM	+ (10-fold or less more active against CDK5 than CDK2)
CN1CCC(S(=O)(=O)c2ccc3cnc(Nc4cccc(N5CCCC5=O)c4)cc3n2)CC1 [Compound 281]	< 10 nM	100 to 1000 nM	++ (greater than 10-fold and less than or equal to 100-fold more active against CDK5 than CDK2)
CN1CCC(S(=O)(=O)c2ccc3cnc(Nc4ccc5c(c4)COC5)cc3n2)CC1 [Compound 282]	< 10 nM	10 to 100 nM	++ (greater than 10-fold and less than or equal to 100-fold more active against CDK5 than CDK2)
CN1CCC(S(=O)(=O)c2ccc3cnc(Nc4cccc(N5CCOC5=O)c4)cc3n2)CC1 [Compound 284]	< 10 nM	10 to 100 nM	++ (greater than 10-fold and less than or equal to 100-fold more active against CDK5 than CDK2)
CN1CCC(S(=O)(=O)c2ccc3cnc(Nc4cccc(N5CCNC5=O)c4)cc3n2)CC1 [Compound 285]	< 10 nM	10 to 100 nM	++ (greater than 10-fold and less than or equal to 100-fold more active against CDK5 than CDK2)
OCc1ccn(-c2ccc(Nc3cc4nc(N(Cc5cn[nH]c5)C5CCNCC5)ccc4cn3)c(F)c2)n1 [Compound 287, [1-[3-fluoro-4-([2-[piperidin-4-yl(1H-pyrazol-4-ylmethyl)amino]-1,6-naphthyridin-7-yl]amino)phenyl]pyrazol-3-yl]methanol]	10 to 100 nM	> 1000 nM	++ (greater than 10-fold and less than or equal to 100-fold more active against CDK5 than CDK2)

Continued, in another order:

IC50 (CDK5/p25)	IC50 (CDK2/CycA2)	SMILES	CDK5/CDK2 specificity (CDK5/p25)
> 1000 nM	> 1000 nM	CN1CCC(S(=O)(=O)c2ccc3cnc(Nc4cnc5ccc(Cl)nn45)cc3n2)CC1 [Compound 286]	+ (10-fold or less more active against CDK5 than CDK2)
< 10 nM	> 1000 nM	COC(=O)c1cnn(-c2ccc(Nc3cc4nc(S(=O)(=O)C5CCN(C)CC5)ccc4cn3)c(F)c2)c1 [Compound 288]	+++ (greater than 100-fold more active against CDK5 than CDK2)
< 10 nM	100 to 1000 nM	COC(=O)c1ccn(-c2ccc(Nc3cc4nc(S(=O)(=O)C5CCN(C)CC5)ccc4cn3)c(F)c2)n1 [Compound 290]	+++ (greater than 100-fold more active against CDK5 than CDK2)
< 10 nM	10 to 100 nM	CN1CCC(C(F)(F)c2ccc3cnc(Nc4ccc(-n5cccn5)cc4F)cc3n2)CC1 [Compound 291, 2-[difluoro(1-methylpiperidin-4-yl)methyl]-N-[2-fluoro-4-(pyrazol-1-yl)phenyl]-1,6-naphthyridin-7-amine]	++ (greater than 10-fold and less than or equal to 100-fold more active against CDK5 than CDK2)
< 10 nM	100 to 1000 nM	CN1CCC(C(O)c2ccc3cnc(Nc4ccc(-n5ccc(C(=O)O)n5)cc4F)cc3n2)CC1 (stereo not drawn) [Compound 292, 1-[3-fluoro-4-([2-[hydroxy(1-methylpiperidin-4-yl)methyl]-1,6-naphthyridin-7-yl]amino)phenyl]pyrazole-3-carboxylic acid]	++ (greater than 10-fold and less than or equal to 100-fold more active against CDK5 than CDK2)
< 10 nM	100 to 1000 nM	CN1CCC(S(=O)(=O)c2ccc3cnc(Nc4ccc(-c5cncnc5)cc4F)cc3n2)CC1 [Compound 293]	+++ (greater than 100-fold more active against CDK5 than CDK2)
< 10 nM	100 to 1000 nM	Cc1ccc(Nc2cc3nc(S(=O)(=O)C4CCN(C)CC4)ccc3cn2)c(F)c1 [Compound 294]	+++ (greater than 100-fold more active against CDK5 than CDK2)
< 10 nM	10 to 100 nM	CN1CCC(S(=O)(=O)c2ccc3cnc(Nc4ccc(C(C)(C)C)cc4)cc3n2)CC1 [Compound 295]	++ (greater than 10-fold and less than or equal to 100-fold more active against CDK5 than CDK2)
< 10 nM	10 to 100 nM	CN1CCC(S(=O)(=O)c2ccc3cnc(Nc4ccc(N5CCS(=O)(=O)CC5)cc4)cc3n2)CC1 [Compound 296]	++ (greater than 10-fold and less than or equal to 100-fold more active against CDK5 than CDK2)
< 10 nM	100 to 1000 nM	Cc1ccccc1Nc1cc2nc(S(=O)(=O)C3CCN(C)CC3)ccc2cn1 [Compound 297]	+++ (greater than 100-fold more active against CDK5 than CDK2)
< 10 nM	10 to 100 nM	CC(C)c1ccc(Nc2cc3nc(S(=O)(=O)C4CCN(C)CC4)ccc3cn2)cc1 [Compound 298]	+++ (greater than 100-fold more active against CDK5 than CDK2)
